Source: PMC7279002, “Novel 3′-Substituted-1′,2′,4′-Oxadiazole Derivatives of 18βH-Glycyrrhetinic Acid and Their O-Acylated Amidoximes: Synthesis and Evaluation of Antitumor and Anti-Inflammatory Potential In Vitro and In Vivo” (International Journal of Molecular Sciences, 2020)
Read-outs that look alike come from different tables or passages of the source.

Tests used:
[1] = tested on: murine melanoma B16; assay: MTT cytotoxicity assay, 48 h; format: cell-based; settings: for Selectivity index: B16: IC50 in hFF3 / IC50 in B16; for IC50: MTT, 48 h
Procedure: (§1) On the first step of the biological evaluation of novel GA derivatives 3a-h, 4a-h, and 5a-h, we analyzed their cytotoxicity in a panel of cultured mammalian cells, including human cervical carcinoma HeLa and KB-3-1, human duodenal carcinoma HuTu-80, human lung adenocarcinoma A549, murine melanoma B16 cell lines, and nontransformed human fibroblasts hFF3. The cells were treated with derivatives for 48 h and cell viability was evaluated by 3-(4, 5-dimethylthiazol-2-yl)-2, 5-diphenyltetrazolium bromide (MTT) assay. Since the studied compounds contain two types of functional groups at position 3-acetoxy- or the hydroxyl-group, 3-acetoxy-GA 1 and GA-Me were used as references. Additionally, hierarchical clustering of cytotoxic data was carried out in order to reveal groups of compounds with similar cytotoxic profiles (Figure 2A).
(§2) Human cervical carcinoma HeLa and KB-3-1 cells, human duodenal carcinoma HuTu-80 cells, and human lung adenocarcinoma A549 cells were obtained from the Russian Culture Collection (Institute of Cytology, RAS, St. Petersburg, Russia). Melanoma B16-F10 (hereafter, melanoma B16) cells were obtained from the Cell Culture Bank of the Blokhin National Medical Oncology Research Center (Moscow, Russia). Nonmalignant fibroblasts hFF3 and RAW264.7 macrophages were kindly provided by Dr. Olga A. Koval (Institute of Chemical Biology and Fundamental Medicine, SB RAS, Novosibirsk, Russia) and Prof. Dmitry Kuprash (Engelhardt Institute of Molecular Biology, RAS, Moscow, Russia), respectively. The cells were cultured in DMEM (Sigma-Aldrich Inc., St. Louis, MO, USA) supplemented with 10% (v/v) heat-inactivated fetal bovine serum (FBS) (BioloT, St. Petersburg, Russia) and antibiotic–antimycotic solution (100 U/mL penicillin, 100 µg/mL streptomycin, 0.25 µg/mL amphotericin). […] The cells were incubated at 37 °C in a humidified 5% CO2-containing air atmosphere (hereafter referred to as standard conditions). GA derivatives were dissolved in DMSO (stock solutions: 10 mM) and stored at −20 °C prior to use.
(§3) Cells were seeded in tetra- or pentaplicates in 96-well plates at a density of 10^4 (tumor cells and […] fibroblasts) or 10^5 (RAW264.7 cells) cells per well. Cells were incubated under standard conditions for 24 h, followed by their treatment with the investigated derivatives (0.5–50 µM) or corresponding concentrations of DMSO (control) for a further 48 h (tumor cells and fibroblasts) or 24 h (RAW264.7 cells). At the end of incubation period, 10 µL of MTT solution was added to the cells (final concentration: 0.5 mg/mL) and plates were incubated for an additional 2 h under standard conditions. Then, the MTT-containing medium was aspirated and formazan crystals formed in living cells were solubilized with 100 µL of DMSO. The absorbance of each well was read at test and reference wavelengths of 570 and 620 nm, respectively, on a Multiscan RC plate reader (Thermo LabSystems, Helsinki, Finland). The IC50 values (the concentration of compounds leading to a decrease of A570 to 50% of A570^control) were calculated by extrapolation of the dose–response curves. […] A heatmap of SI values was constructed by Microsoft Excel 2010.

[2] = tested on: human cervical carcinoma HeLa; assay: MTT cytotoxicity assay, 48 h; format: cell-based; settings: for IC50: MTT, 48 h, read-out: IC50, µM Cervix HeLa; for Selectivity index: HeLa: IC50 in hFF3 / IC50 in HeLa
Procedure: as §1, §2, §3

[3] = tested on: human duodenal carcinoma HuTu-80; assay: MTT cytotoxicity assay, 48 h; format: cell-based; settings: for IC50: MTT, 48 h, read-out: IC50, µM Duodenum HuTu-80; for Selectivity index: HuTu-80: IC50 in hFF3 / IC50 in HuTu-80
Procedure: as §1, §2, §3

[4] = tested on: human cervical carcinoma KB-3-1; assay: MTT cytotoxicity assay, 48 h; format: cell-based; settings: for IC50: MTT, 48 h, read-out: IC50, µM Cervix KB-3-1; for Selectivity index: KB-3-1: IC50 in hFF3 / IC50 in KB-3-1
Procedure: as §1, §2, §3

[5] = tested on: nontransformed human fibroblasts hFF3; assay: MTT cytotoxicity assay, 48 h; format: cell-based
Procedure: as §1, §2, §3

[6] = tested on: human lung adenocarcinoma A549; assay: MTT cytotoxicity assay, 48 h; format: cell-based; settings: for IC50: MTT, 48 h; for Selectivity index: A549: IC50 in hFF3 / IC50 in A549
Procedure: as §1, §2, §3

[7] = tested on: HeLa, KB-3-1, HuTu-80, A549, B16 and hFF3 cells; assay: MTT cytotoxicity, summary over the panel of cell lines; format: cell-based; settings: for IC50: median over all tested cell lines, read-out: median IC50
Procedure: as §1, §3

[8] = Homo sapiens, HFF-3, read-out: IC50, µM Fibroblast hFF3

Compound | melting point | Selectivity index: B16 [1] | IC50 ([1]; Mus musculus) [µM] | IC50 ([2]; Homo sapiens, HeLa) [µM] | Selectivity index: HeLa [2] | IC50 ([3]; Homo sapiens, HuTu80) [µM] | Selectivity index: HuTu-80 [3] | IC50 ([4]; Homo sapiens, KB 3-1) [µM] | Selectivity index: KB-3-1 [4] | IC50 [5, 8] [µM] | IC50 ([6]; Homo sapiens, A549) [µM] | Selectivity index: A549 [6] | IC50 [7] [µM] | median SI ([7]; in all tumor cells) | IC50 [1] [µM] | IC50 [2] [µM] | IC50 [3] [µM] | IC50 [4] [µM] | IC50 ([5]; read-out: IC50, µM Fibroblast hFF3) [µM] | IC50 [6] [µM]
CC(=O)O[C@H]1CC[C@@]2(C)C(CC[C@]3(C)C2C(=O)C=C2[C@@H]4C[C@@](C)(C(=O)O/N=C(/N)c5ccccc5)CC[C@]4(C)CC[C@]23C)C1(C)C (stereo partly drawn) [Compound 3e] | 144.6 to 145 °C | 0.4 | 16.4 ± 0.7 | 5.8 ± 0.8 | 1.3 | 7.5 ± 0.1 | 1.0 | 16 ± 1.4 | 0.5 | 7.3 ± 0.3 | 4.9 ± 0.4 | 1.5 | – | – | – | – | – | – | – | –
CC(=O)O[C@H]1CC[C@@]2(C)C(CC[C@]3(C)C2C(=O)C=C2[C@@H]4C[C@@](C)(C(=O)O)CC[C@]4(C)CC[C@]23C)C1(C)C (stereo partly drawn) [Compound 1, 3β-acetoxy-11-oxo-18βH-olean-12-en-29-oic acid, reference compound] | – | 1.2 | 11.5 ± 1.5 | 12.7 ± 1.1 | 1.1 | 2.9 ± 0.1 | 4.7 | 7.4 ± 0.6 | 1.8 | 13.6 ± 2.2 | 15.9 ± 2.3 | 0.9 | – | – | – | – | – | – | – | –
CC(C)c1noc([C@@]2(C)CC[C@]3(C)CC[C@]4(C)C(=CC(=O)C5[C@@]6(C)CC[C@H](O)C(C)(C)C6CC[C@]54C)[C@@H]3C2)n1 (stereo partly drawn) [Compound 5c, 30-nor-3β-hydroxy-11-oxo-20-(3′-isopropyl-1′,2′,4′-oxadiazol-5′-yl)-18βH-olean-12-en] | 216.4 to 219.7 °C | 0.8 | 6.6 ± 0.1 | 2.6 ± 0.1 | 2.2 | 9.5 ± 0.5 | 0.6 | 5.9 ± 0.1 | 0.9 | 5.6 ± 1 | 4.5 ± 1.1 | 1.2 | 5.8 | – | – | – | – | – | – | –
CC1(C)C2CC[C@]3(C)C(C(=O)C=C4[C@@H]5C[C@@](C)(c6nc(-c7ccncc7)no6)CC[C@]5(C)CC[C@]43C)[C@@]2(C)CC[C@@H]1O (stereo partly drawn) [Compound 5h, 30-nor-3β-hydroxy-11-oxo-20-(3′-(pyridin-4′′-yl)-1′,2′,4′-oxadiazol-5′-yl)-18βH-olean-12-en] | 129.5 to 129.9 °C | – | > 50 | 3.5 ± 0.1 | > 14.3 | 4.7 ± 0.4 | > 10.6 | 4.9 ± 0.3 | > 10.2 | > 50 | > 50 | – | – | – | – | – | – | – | – | –
CC1(C)C2CC[C@]3(C)C(C(=O)C=C4[C@@H]5C[C@@](C)(c6nc(-c7cccnc7)no6)CC[C@]5(C)CC[C@]43C)[C@@]2(C)CC[C@@H]1O (stereo partly drawn) [Compound 5g, 30-nor-3β-hydroxy-11-oxo-20-(3′-(pyridin-3′′-yl)-1′,2′,4′-oxadiazol-5′-yl)-18βH-olean-12-en] | 231.6 °C (dec.) | – | > 50 | 4.6 ± 0.3 | > 10.9 | 4.7 ± 0.2 | > 10.6 | 16.9 ± 1.4 | > 3.0 | > 50 | > 50 | – | – | – | – | – | – | – | – | –
COC(=O)[C@@]1(C)CC[C@]2(C)CC[C@]3(C)C(=CC(=O)[C@@H]4[C@@]5(C)CC[C@H](O)C(C)(C)[C@@H]5CC[C@]43C)[C@@H]2C1 [GA-Me, reference compound] | – | 10.9 | – | – | 6.1 | – | 10.9 | – | 10.9 | – | – | 8.2 | 1.1 | 10.9 | 0.9 ± 0.1 | 0.9 ± 0.1 | 1.6 ± 0.5 | 0.9 ± 0.1 | 9.8 ± 1 | 1.2 ± 0.1
CC(=O)O[C@H]1CC[C@@]2(C)C(CC[C@]3(C)C2C(=O)C=C2[C@@H]4C[C@@](C)(C(=O)O/N=C(/N)C(C)C)CC[C@]4(C)CC[C@]23C)C1(C)C (stereo partly drawn) [Compound 3c] | 120.3 °C (dec.) | 0.5 | 5.6 ± 0.2 | 3 ± 0.2 | 0.9 | 2.1 ± 0.2 | 1.2 | 4.9 ± 0.4 | 0.5 | 2.6 ± 0.1 | 2.6 ± 0.1 | 1.0 | – | – | – | – | – | – | – | –
CC(=O)O[C@H]1CC[C@@]2(C)C(CC[C@]3(C)C2C(=O)C=C2[C@@H]4C[C@@](C)(C(=O)O/N=C(/N)c5ccccn5)CC[C@]4(C)CC[C@]23C)C1(C)C (stereo partly drawn) [Compound 3f] | 165.8 °C (dec.) | 0.3 | 22.5 ± 3.1 | 6.4 ± 1 | 1.2 | 6.9 ± 0.3 | 1.1 | 10.9 ± 2.2 | 0.7 | 7.6 ± 1 | 7.7 ± 1.8 | 1.0 | – | – | – | – | – | – | – | –
CC/C(N)=N\OC(=O)[C@@]1(C)CC[C@]2(C)CC[C@]3(C)C(=CC(=O)C4[C@@]5(C)CC[C@H](OC(C)=O)C(C)(C)C5CC[C@]43C)[C@@H]2C1 (stereo partly drawn) [Compound 3b] | 120 °C (dec.) | 0.4 | 7.2 ± 0.6 | 3.3 ± 0.2 | 0.9 | 2.4 ± 0.2 | 1.2 | 6.7 ± 0.7 | 0.4 | 2.9 ± 0.3 | 7.3 ± 3 | 0.4 | – | – | – | – | – | – | – | –
CC(=O)O[C@H]1CC[C@@]2(C)C(CC[C@]3(C)C2C(=O)C=C2[C@@H]4C[C@@](C)(C(=O)O/N=C(/N)c5ccncc5)CC[C@]4(C)CC[C@]23C)C1(C)C (stereo partly drawn) [Compound 3h] | 161.3 °C (dec.) | 1.4 | 7.8 ± 1.9 | 7.1 ± 1.4 | 1.6 | 5.6 ± 0.1 | 2.0 | 7 ± 1.4 | 1.6 | 11.1 ± 0.5 | 7.1 ± 1.6 | 1.6 | – | – | – | – | – | – | – | –
CC(=O)O[C@H]1CC[C@@]2(C)C(CC[C@]3(C)C2C(=O)C=C2[C@@H]4C[C@@](C)(C(=O)O/N=C(/N)c5cccnc5)CC[C@]4(C)CC[C@]23C)C1(C)C (stereo partly drawn) [Compound 3g] | 149.7 °C (dec.) | 1.0 | 8.9 ± 1.1 | 6.1 ± 1 | 1.4 | 4.9 ± 0.3 | 1.7 | 10 ± 0.9 | 0.9 | 8.5 ± 0.3 | 5.6 ± 0.9 | 1.5 | – | – | – | – | – | – | – | –
